Measured values reported in patent US8956662B2, “Phenylephrine pharmaceutical formulations and compositions for colonic absorption” (MSD Consumer Care, Inc., priority 2006, dated 2015).
Structures can show the parent of a compound that is named as a salt. Where two headings read alike, the source gives them in different places.

Tests used:
[1] = Bioavailability of phenylephrine: plasma levels after delivery to the colon via Enterion capsules or oral Sudafed PE; format: in vivo, human; conditions: for t1/2, unconjugated Phenylephrine / Tmax, unconjugated Phenylephrine: hydrochloride; for Tlag, unconjugated Phenylephrine / Tmax, unconjugated Phenylephrine: median (range); for AUC(0-t) / Cmax / bioavailability / concentration at 0.083 h / concentration at […] / concentration at 0.5 h / concentration at 1 h / concentration at 2 h / concentration at 3 h / concentration at 4 h / concentration at 6 h / concentration at 8 h / concentration at 12 h / concentration at 14 h / concentration at 16 h / concentration at 24 h: both sexes, human, plasma, oral; for Cmax: read-out: Cmax, unconjugated Phenylephrine; for bioavailability: read-out: Frel last (bioavailability relative to immediate release oral formulation), unconjugated Phenylephrine; for concentration at 0.083 h: 0.083 h post-dose; for concentration at 0.083 h / concentration at […] / concentration at 0.5 h / concentration at 1 h / concentration at 2 h / concentration at 3 h / concentration at 4 h / concentration at 6 h / concentration at 8 h / concentration at 12 h / concentration at 14 h / concentration at 16 h / concentration at 24 h: read-out: Mean plasma concentration (Unconjugated); for concentration at 0.5 h: 0.5 h post-dose; for concentration at 1 h: 1 h post-dose; for concentration at 2 h: 2 h post-dose; for concentration at 3 h: 3 h post-dose; for concentration at 4 h: 4 h post-dose; for concentration at 6 h: 6 h post-dose; for concentration at 8 h: 8 h post-dose; for concentration at 12 h: 12 h post-dose; for concentration at 14 h: 14 h post-dose; for concentration at 16 h: 16 h post-dose; for concentration at 24 h: 24 h post-dose
Experimental: The following study was conducted to examine the phenylephrine absorption behavior in GI tract. […] Enterion™ capsules (Pharmaceutical Profiles Ltd, UK) allow for deployment of drug delivery at a desired location within the GI tract. To determine the capsules had reached a desired location, preparations of regimens A and C were administered orally with 210 mL water followed by a radiolabeled drink containing 4 MBq 99m-Tc-diethylenetriaminepetaacetic acid (DTPA) in 30 mL water so that the location of the ingested materials could be visualized by scintigraphic imaging. […] The blood samples were collected into a tube containing lithium heparin, centrifuged within 30 minutes at 1500 g for 15 minutes at 4 degrees Celsius. The plasma was analyzed for phenylephrine in its conjugated and unconjugated forms. The amount of conjugated phenylephrine was calculated by subtracting the amount of unconjugated phenylephrine assayed from the amount of total phenylephrine assayed.
The relative bioavailability, shown as Frel last in the table, indicates the bioavailability of phenylephrine administered to the colon relative to that administered as an immediate release oral formulation.

[2] = oral dosage forms; cited from earlier work
[3] = conventional tablet formulation; cited from earlier work
[4] = 10 mg PE-colon (Regimen A) n = 8
[5] = 30 mg PE-colon (Regimen C) n = 6
[6] = 10 mg PE-colon (Regimen A) n = 8, mean ± SD
[7] = 10 mg to colon via Enterion capsule (Regimen A)
[8] = 30 mg PE-colon (Regimen C) n = 6, mean ± SD
[9] = 30 mg to colon via Enterion capsule (Regimen C)

CNC[C@H](O)c1cccc(O)c1 [Phenylephrine hydrochloride, phenylephrine hydrochloride]
t1/2, unconjugated Phenylephrine ([1]; 10 mg PE-colon (Regimen A) n = 2, mean): 8.19 (n = 2) hours
Tlag, unconjugated Phenylephrine [1, 4]: 0.0800 (0–0.750)a hours
Tmax, unconjugated Phenylephrine [1, 4]: 1.50 (0.250–3.00)a hours
active unconjugated form as share of total phenylephrine concentration over time in plasma (AUC0-∞ unconjugated / AUC0-∞ total) ([1]; 10 mg phenylephrine in immediate release form): ≤ 0.5%
active unconjugated form as share of total phenylephrine concentration over time in plasma (AUC0-∞ unconjugated / AUC0-∞ total) ([1]; 10 mg phenylephrine released in the colon): approximately 2.2%
t1/2, unconjugated Phenylephrine ([1]; 30 mg PE-colon (Regimen C) n = 3, mean ± SD): 10.8 ± 7.99 (n = 3) hours
Tlag, unconjugated Phenylephrine [1, 5]: 0 (0–0.750)a hours
Tmax, unconjugated Phenylephrine [1, 5]: 2.25 (0.750–6.03)a hours
active unconjugated form as share of total phenylephrine concentration over time in plasma (AUC0-∞ unconjugated / AUC0-∞ total) ([1]; 30 mg phenylephrine released in the colon): Approximately 5%
increase of bioavailability versus oral immediate release form ([1]; absorption from the lower intestinal tract): by a factor of three
AUC(0-t) ([1]; 10 mg, 10 mg PE-colon (Regimen A) n = 2, mean, read-out: AUC0–24, unconjugated Phenylephrine (Table 13)): 2.87 ng·h/mL
AUC(0-t) ([1]; 10 mg, 10 mg phenylephrine hydrochloride delivered to the colon, read-out: mean AUC0-24 value of unconjugated phenylephrine): 1.58 ± 0.915 ng·h/mL
AUC(0-t) ([1]; 30 mg, 30 mg PE-colon (Regimen C) n = 3, mean ± SD, read-out: AUC0–24, unconjugated Phenylephrine (Table 13)): 8.94 ± 5.16 ng·h/mL
AUC(0-t) ([1]; 30 mg, 30 mg phenylephrine hydrochloride delivered to the colon, read-out: mean AUC0-24 value of unconjugated phenylephrine): 5.17 ± 1.56 ng·h/mL
Cmax [1, 6]: 0.4 ± 0.454 ng/mL
bioavailability [1, 6]: 332 ± 232%
concentration at 0.083 h [1, 7]: 0.0586 ng/mL
concentration at […] ([1]; 10 mg to colon via Enterion capsule (Regimen A), 0.25 h post-dose): 0.304 ng/mL
concentration at 0.5 h [1, 7]: 0.145 ng/mL
concentration at […] ([1]; 10 mg to colon via Enterion capsule (Regimen A), 0.75 h post-dose): 0.125 ng/mL
concentration at 1 h [1, 7]: 0.135 ng/mL
concentration at […] ([1]; 10 mg to colon via Enterion capsule (Regimen A), 1.5 h post-dose): 0.16 ng/mL
concentration at 2 h [1, 7]: 0.187 ng/mL
concentration at […] ([1]; 10 mg to colon via Enterion capsule (Regimen A), 2.5 h post-dose): 0.182 ng/mL
concentration at 3 h [1, 7]: 0.165 ng/mL
concentration at 4 h [1, 7]: 0.15 ng/mL
concentration at 6 h [1, 7]: 0.111 ng/mL
concentration at 8 h [1, 7]: 0.068 ng/mL
concentration at 12 h [1, 7]: 0.058 ng/mL
concentration at 14 h [1, 7]: 0.059 ng/mL
concentration at 16 h [1, 7]: 0.064 ng/mL
concentration at 24 h [1, 7]: 0.059 ng/mL
Cmax [1, 8]: 0.468 ± 0.174 ng/mL
bioavailability [1, 8]: 333 ± 140%
concentration at 0.083 h [1, 9]: 0.0458 ng/mL
concentration at […] ([1]; 30 mg to colon via Enterion capsule (Regimen C), 0.25 h post-dose): 0.0784 ng/mL
concentration at 0.5 h [1, 9]: 0.229 ng/mL
concentration at […] ([1]; 30 mg to colon via Enterion capsule (Regimen C), 0.75 h post-dose): 0.242 ng/mL
concentration at 1 h [1, 9]: 0.253 ng/mL
concentration at […] ([1]; 30 mg to colon via Enterion capsule (Regimen C), 1.5 h post-dose): 0.348 ng/mL
concentration at 2 h [1, 9]: 0.354 ng/mL
concentration at […] ([1]; 30 mg to colon via Enterion capsule (Regimen C), 2.5 h post-dose): 0.352 ng/mL
concentration at 3 h [1, 9]: 0.324 ng/mL
concentration at 4 h [1, 9]: 0.309 ng/mL
concentration at 6 h [1, 9]: 0.311 ng/mL
concentration at 8 h [1, 9]: 0.269 ng/mL
concentration at 12 h [1, 9]: 0.195 ng/mL
concentration at 14 h [1, 9]: 0.204 ng/mL
concentration at 16 h [1, 9]: 0.196 ng/mL
concentration at 24 h [1, 9]: 0.157 ng/mL
maximal plasma concentration of unconjugated phenylephrine as percentage of maximal plasma concentration of total phenylephrine ([1]; immediate release formulation by oral administration): less than 0.7%
half-life of active phenylephrine in plasma [2]: approximately 2 hours

CCOC(=O)N1CCC(=C2c3ccc(Cl)cc3CCc3cccnc32)CC1 [loratadine]
time the antihistaminic effect lasts [3]: > 24 h
